The source made the active and inactive calls. The calls are words filed in the database; no cut-off is given here.
Columns and labels:
[1] = system: A549; test: Induction of apoptosis in human A549 cells assessed as late apoptotic cells at 25 uM measured after 48 hrs by AnnexinV-FITC/propidium iodide staining based FACS analysis (reference value: 1.71 %); assay type: functional
[2] = system: MGC-803; test: Antiproliferative activity against human MGC803 cells measured after 48 hrs by CCK8 assay; assay type: functional, cell-based; details: MGC-803, 48 h
[3] = system: Huh-7; test: Antiproliferative activity against human HuH7 cells measured after 48 hrs by CCK8 assay; assay type: functional, cell-based; details: Huh-7, 48 h
[4] = system: A549; test: Inhibition of cullin-RING ligase in human A549 cells assessed as accumulation of Wee1 level at 50 to 125 uM and measured after 6 to 12 hrs by Western blot analysis; assay type: cell-based
[5] = system: A549; test: Cell cycle arrest in human A549 cells assessed as accumulation at S phase at 75 uM measured after 24 hrs by propidium iodide/RNase A staining based flow cytometry analysis (reference value: 21.54 %); assay type: functional
[6] = system: A549; test: Cell cycle arrest in human A549 cells assessed as accumulation at G2 phase at 75 uM measured after 24 hrs by propidium iodide/RNase A staining based flow cytometry analysis (reference value: 12.69 %); assay type: functional
[7] = system: A549; test: Induction of apoptosis in human A549 cells assessed as early apoptotic cells at 25 uM measured after 48 hrs by AnnexinV-FITC/propidium iodide staining based FACS analysis (reference value: 2.19 %); assay type: functional
[8] = system: A549; test: Inhibition of cullin-RING ligase in human A549 cells assessed as accumulation of p27 level at 50 to 125 uM and measured after 6 to 12 hrs by Western blot analysis; assay type: cell-based
[9] = system: A549; test: Cell cycle arrest in human A549 cells assessed as accumulation at G1 phase at 75 uM measured after 24 hrs by propidium iodide/RNase A staining based flow cytometry analysis (reference value: 63.84 %); assay type: functional
[10] = system: A549; test: Cell cycle arrest in human A549 cells assessed as accumulation at S phase at 50 uM measured after 24 hrs by propidium iodide/RNase A staining based flow cytometry analysis (reference value: 21.54 %); assay type: functional
[11] = system: A549; test: Cell cycle arrest in human A549 cells assessed as accumulation at sub-G1 phase at 25 uM measured after 24 hrs by propidium iodide/RNase A staining based flow cytometry analysis (reference value: 0.89 %); assay type: functional
[12] = system: HepG2; test: Antiproliferative activity against human HepG2 cells measured after 48 hrs by CCK8 assay; assay type: functional, cell-based; details: HepG2, 48 h
[13] = system: NCI-H1299; test: Antiproliferative activity against human H1299 cells measured after 48 hrs by CCK8 assay; assay type: functional, cell-based; details: NCI-H1299, 48 h
[14] = system: A549; test: Cell cycle arrest in human A549 cells assessed as accumulation at G2 phase at 50 uM measured after 24 hrs by propidium iodide/RNase A staining based flow cytometry analysis (reference value: 12.69 %); assay type: functional
[15] = system: A549; test: Antiproliferative activity against human A549 cells measured after 48 hrs by CCK8 assay; assay type: functional, cell-based; details: A549, 48 h
[16] = target: T1, NEDD8/Cullin-1 (Homo sapiens) (UniProt Q13616+Q15843); test: Competitive inhibition of Nedd8-cullin1 (unknown origin) adduct formation at 12.5 to 50 uM assessed as increase in substrate Km by Lineweaver-Burk plot analysis; assay type: protein assay
T1 sequence (Q13616 whole entry, looked up): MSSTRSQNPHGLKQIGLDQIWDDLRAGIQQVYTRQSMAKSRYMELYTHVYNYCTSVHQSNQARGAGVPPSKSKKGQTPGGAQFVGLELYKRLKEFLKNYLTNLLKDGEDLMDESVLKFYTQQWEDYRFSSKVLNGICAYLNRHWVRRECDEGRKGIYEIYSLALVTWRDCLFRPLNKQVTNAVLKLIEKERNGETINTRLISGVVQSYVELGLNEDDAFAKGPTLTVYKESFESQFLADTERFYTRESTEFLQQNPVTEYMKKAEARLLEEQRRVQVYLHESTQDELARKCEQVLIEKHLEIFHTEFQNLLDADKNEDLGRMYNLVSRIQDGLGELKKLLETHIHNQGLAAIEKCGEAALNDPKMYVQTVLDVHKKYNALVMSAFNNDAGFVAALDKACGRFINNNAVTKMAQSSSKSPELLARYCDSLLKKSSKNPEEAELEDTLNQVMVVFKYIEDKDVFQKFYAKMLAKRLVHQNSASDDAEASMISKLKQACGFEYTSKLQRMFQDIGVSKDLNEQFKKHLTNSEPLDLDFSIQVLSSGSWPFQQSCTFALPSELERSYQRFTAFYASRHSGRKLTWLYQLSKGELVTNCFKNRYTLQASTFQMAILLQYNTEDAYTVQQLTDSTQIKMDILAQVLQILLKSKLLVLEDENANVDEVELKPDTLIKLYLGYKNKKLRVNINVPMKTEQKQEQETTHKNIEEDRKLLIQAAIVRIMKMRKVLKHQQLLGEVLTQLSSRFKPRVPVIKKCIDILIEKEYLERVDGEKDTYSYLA
T1 sequence (Q15843 whole entry, looked up): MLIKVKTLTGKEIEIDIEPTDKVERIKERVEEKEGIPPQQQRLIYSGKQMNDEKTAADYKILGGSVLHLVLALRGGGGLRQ

[17] = target: T2, NEDD8-conjugating enzyme Ubc12 (Homo sapiens) (UniProt P61081); test: Inhibition of UBC12 in human A549 cells assessed as decrease in Cullin3-Nedd8 adduct level at 50 uM measured after 6 to 12 hrs by Western blot analysis; assay type: cell-based
T2 sequence (whole entry): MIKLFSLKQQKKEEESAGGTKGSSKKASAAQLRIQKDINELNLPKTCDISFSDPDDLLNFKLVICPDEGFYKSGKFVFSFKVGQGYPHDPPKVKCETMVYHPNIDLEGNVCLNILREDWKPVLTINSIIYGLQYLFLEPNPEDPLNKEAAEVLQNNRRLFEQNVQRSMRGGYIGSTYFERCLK

[18] = target: T2, NEDD8-conjugating enzyme Ubc12 (Homo sapiens); test: Inhibition of UBC12 in human A549 cells assessed as decrease in Cullin4a-Nedd8 adduct level measured after 6 to 12 hrs by Western blot analysis; assay type: cell-based
[19] = system: A549; test: Effect on Ub-modified protein level in human A549 cells by Western blot analysis; assay type: functional, cell-based
[20] = target: T2, NEDD8-conjugating enzyme Ubc12 (Homo sapiens); test: Inhibition of UBC12 in human A549 cells assessed as decrease in Cullin3-Nedd8 adduct level measured after 6 to 12 hrs by Western blot analysis; assay type: cell-based
[21] = system: A549; test: Induction of apoptosis in human A549 cells assessed as late apoptotic cells at 50 uM measured after 48 hrs by AnnexinV-FITC/propidium iodide staining based FACS analysis (reference value: 1.71 %); assay type: functional
[22] = system: A549; test: Cell cycle arrest in human A549 cells assessed as accumulation at S phase at 25 uM measured after 24 hrs by propidium iodide/RNase A staining based flow cytometry analysis (reference value: 21.54 %); assay type: functional
[23] = system: BEAS-2B; test: Cytotoxicity against human BEAS2B cells after 48 hrs by CCK-8 assay; assay type: cell-based
[24] = system: MKN-45; test: Antiproliferative activity against human MKN45 cells measured after 48 hrs by CCK8 assay; assay type: functional, cell-based; details: MKN-45, 48 h
[25] = system: A549; test: Effect on SUMO1 level in human A549 cells by Western blot analysis; assay type: functional, cell-based
[26] = target: T1, NEDD8/Cullin-1 (Homo sapiens); test: Competitive inhibition of Nedd8-cullin1 (unknown origin) adduct formation at 12.5 to 50 uM assessed as substrate Vmax by Lineweaver-Burk plot analysis; assay type: protein assay
[27] = system: PLC; test: Antiproliferative activity against human PLC cells measured after 48 hrs by CCK8 assay; assay type: functional, cell-based
[28] = system: T47D; test: Antiproliferative activity against human T47D cells measured after 48 hrs by CCK8 assay; assay type: functional, cell-based
[29] = target: T2, NEDD8-conjugating enzyme Ubc12 (Homo sapiens); test: Inhibition of UBC12 in human A549 cells assessed as decrease in Cullin2-Nedd8 adduct level measured after 6 to 12 hrs by Western blot analysis; assay type: cell-based
[30] = system: MCF7; test: Antiproliferative activity against human MCF7 cells measured after 48 hrs by CCK8 assay; assay type: functional, cell-based; details: MCF7, 48 h
[31] = system: A549; test: Induction of apoptosis in human A549 cells assessed as late apoptotic cells at 75 uM measured after 48 hrs by AnnexinV-FITC/propidium iodide staining based FACS analysis (reference value: 1.71 %); assay type: functional
[32] = system: A549; test: Induction of apoptosis in human A549 cells assessed as early apoptotic cells at 75 uM measured after 48 hrs by AnnexinV-FITC/propidium iodide staining based FACS analysis (reference value: 2.19 %); assay type: functional

- IC50 [2]: 57.1 µM
- IC50 [3]: > 100 µM
- IC50 [12]: > 100 µM
- IC50 [13]: 45.1 µM
- IC50 [15]: 63.9 µM
- inhibition [16]: Active
- inhibition [17]: Active
- inhibition [18]: Dose-dependent effect
- inhibition [20]: Dose-dependent effect
- IC50 [24]: 68.9 µM
- inhibition [26]: Active
- IC50 [28]: 64.3 µM
- inhibition [29]: Dose-dependent effect
- IC50 [30]: > 100 µM
Compound: CCOc1nc2cccc(C(=O)OC(C)OC(=O)OC3CCCCC3)c2n1Cc1ccc(-c2ccccc2-c2nn[nH]n2)cc1 (configuration not stated) [CANDESARTAN CILEXETIL]
- Activity [1]: 5.5%
- inhibition [4]: Active
- Activity [5]: 19.74%
- Activity [6]: 8.15%
- Activity [7]: 4.1%
- inhibition [8]: Active
- Activity [9]: 40.44%
- Activity [10]: 11.53%
- Activity [11]: 9.54%
- Activity [14]: 6.79%
- Activity [19]: Active
- Activity [21]: 13.36%
- Activity [22]: 18.37%
- IC50 [23]: 89.9 µM
- Activity [25]: inactive
- IC50 [27]: 60.2 µM
- Activity [31]: 14.26%
- Activity [32]: 36.64%
